Measurements: ChEMBL document CHEMBL5634150, “Design, synthesis and biological evaluation of novel dihydroquinolin-4(1H)-one derivatives as novel tubulin polymerization inhibitors” (Eur J Med Chem, 2023)
In brackets after ≈: the same amount, converted by molar mass.

How the values were obtained:
[1] = test system: A549; test: Antiproliferative activity against human A549 cells assessed as inhibition of cell growth at 1 uM measured after 72 hrs by MTT assay relative to control; type: functional
[2] = test system: A549; test: Antiproliferative activity against human A549 cells assessed as inhibition of cell growth at 0.1 uM measured after 72 hrs by MTT assay relative to control; type: functional
[3] = test system: A549; test: Antiproliferative activity against human A549 cells assessed as inhibition of cell growth at 0.01 uM measured after 72 hrs by MTT assay relative to control; type: functional
[4] = Metabolic stability in mouse plasma assessed as compound remaining at 1 uM and measured at 3 hrs by LC-MS/MS analysis; type: ADME, cell-free; conditions: read-out: Stability
[5] = test system: A549; test: Antiproliferative activity against human A549 cells assessed as inhibition of cell growth measured after 72 hrs by MTT assay; type: functional, cell-based; conditions: A549, 72 h
[6] = test system: K562; test: Antiproliferative activity against human K562 cells assessed as inhibition of cell growth measured after 72 hrs by MTT assay; type: functional, cell-based; conditions: K562, 72 h
[7] = test system: HepG2; test: Antiproliferative activity against human HepG2 cells assessed as inhibition of cell growth measured after 72 hrs by MTT assay; type: functional, cell-based; conditions: HepG2, 72 h
[8] = test system: MDA-MB-231; test: Antiproliferative activity against human MDA-MB-231 cells assessed as inhibition of cell growth measured after 72 hrs by MTT assay; type: functional, cell-based; conditions: MDA-MB-231, 72 h
[9] = Antiproliferative activity against human HFL1 cells assessed as inhibition of cell growth measured after 72 hrs by MTT assay; type: toxicity, cell-based
[10] = test system: A549/TR; test: Antiproliferative activity against human A549/Taxol cells assessed as inhibition of cell growth measured after 72 hrs by MTT assay; type: functional, cell-based
[11] = Aqueous solubility of the compound by HPLC analysis; type: physicochemical; conditions: aqueous (not further specified)
[12] = Metabolic stability in mouse plasma assessed as half life at 1 uM and measured upto 3 hrs by LC-MS/MS analysis; type: ADME, cell-free
[13] = Metabolic stability in mouse liver microsomes assessed as half life at 100 uM measure upto 60 mins in presence of NADPH by LC-MS/MS analysis; type: ADME, Microsome
[14] = Metabolic stability in mouse liver microsomes assessed as intrinsic clearance at 100 uM measure upto 60 mins in presence of NADPH by LC-MS/MS analysis; type: ADME, Microsome; conditions: 1 h
[15] = test system: H22; test: Antitumor activity against mouse H22 cells allografted in mouse model assessed as tumor growth inhibition at 20 mg/kg,iv administered once daily for 3 weeks relative to control; type: functional; conditions: H22, 504 h, read-out: TGI
[16] = Resistance index, ratio of IC50 for antiproliferative activity against human A549/Taxol cells to IC50 for antiproliferative activity against human A549 cells; type: functional

IC50 [5] | IC50 [6] | IC50 [7] | IC50 [8] | Structure (SMILES) | inhibition at 1 µM [1] | inhibition at 0.1 µM [2] | inhibition at 0.01 µM [3] | IC50 at 72 h [9] | further results
 |  |  |  | COc1ccc(CN2CCC(=O)c3c2cc(OC)c(OC)c3OC)cc1O | 17.7% | 13% | 13% |  | 
 |  |  |  | COc1ccc(N2CCC(=O)c3c2cc(OC)c(OC)c3OC)cc1OC | 41% | 17.6% | 11% |  | 
 |  |  |  | COc1ccc2c(c1)C(=O)CCN2c1ccc(OC)c(O)c1 | 66.6% | 40.2% | 32.5% |  | 
 |  |  |  | COc1ccc(N2CCC(=O)c3c2cc(OC)c(OC)c3OC)cn1 | 45.3% | 30.4% | 18.8% |  | 
 |  |  |  | COc1cc2c(cc1O)N(c1cc(OC)c(OC)c(OC)c1)CCC2=O | 54.4% | 45.6% | 33.5% |  | 
 |  |  |  | COc1cc2c(c(OC)c1OC)C(=O)CCN2Cc1ccc(F)cc1 | 32.1% | 16.3% | 12% |  | 
34 nM | 30 nM | 32 nM | 96 nM | COc1ccc(N2CCC(=O)c3c2cc(OC)c(OC)c3OC)cc1O | 68.4% | 68.3% | 43.9% | 284 nM | 
 |  |  |  | COc1cc2c(c(OC)c1OC)C(=O)CCN2Cc1ccc(C(F)(F)F)cc1 | 28.6% | 22.1% | 6.29% |  | 
63 nM | 7 nM | 21 nM | 33 nM | COc1cc2c(c(OC)c1OC)C(=O)CCN2c1cccc2c1ccn2C | 74.2% | 56% | 19.2% | 99 nM | 
 |  |  |  | COc1cc2c(c(OC)c1OC)C(=O)CCN2c1cccc(O)c1 | 50.1% | 36.8% | 15.8% |  | 
22 nM |  |  |  | CC(=O)O[C@H]1C(=O)[C@@]2(C)[C@H]([C@H](OC(=O)c3ccccc3)[C@]3(O)C[C@H](OC(=O)[C@H](O)[C@@H](NC(=O)c4ccccc4)c4ccccc4)C(C)=C1C3(C)C)[C@]1(OC(C)=O)CO[C@@H]1C[C@@H]2O [PACLITAXEL] |  |  |  |  | IC50 [10]: 602 nM; Ratio IC50 [16]: 27.36
 |  |  |  | COc1cc(N2CCC(=O)c3c2cc(OC)c(OC)c3OC)cc(OC)c1OC | 28.4% | 19.4% | 12.3% |  | 
305 nM | 182 nM | 855 nM | 912 nM | COc1cc2c(c(OC)c1OC)C(=O)CCN2c1ccc2[nH]ccc2c1 | 72% | 69% | 30.1% | 2980 nM | 
 |  |  |  | COc1cc2c(c(OC)c1OC)C(=O)CCN2c1ccc(C)cc1 | 64.1% | 41.7% | 21% |  | 
72 nM | 34 nM | 77 nM | 107 nM | COc1ccc(N2CCC(=O)c3c2cc(OC)c(OC)c3OC)cc1 | 74.5% | 69.3% | 34% | 370 nM | 
280 nM | 226 nM | 672 nM | 902 nM | COc1ccc(N2CCC(=O)c3cc(OC)c(OC)cc32)cc1O | 73.3% | 44.2% | 20.4% | 3300 nM | 

Structure (SMILES) | IC50 [5] | IC50 [6] | IC50 [7] | IC50 [8] | inhibition at 1 µM [1] | inhibition at 0.1 µM [2] | inhibition at 0.01 µM [3] | IC50 at 72 h [9] | further results
COc1ccc(/C=C\c2cc(OC)c(OC)c(OC)c2)cc1O [COMBRETASTATIN A4] | 11 nM | 4 nM | 33 nM | 20 nM | 78.4% | 76.2% | 76.9% | 91 nM | remaining at 3 h, 1 µM [4]: 97.8%; IC50 [10]: 76 nM; solubility [11]: 0.96 µg/mL (≈ 3.03 µM); half-life at 1 µM [12]: > 180 min; half-life at 100 µM [13]: < 5 min; CLH [14]: > 0.277 mL/min/mg; inhibition in vivo at 20 mg/kg [15]: 59.2%
